{"source": "paper PMC9927415", "about": "“Tyrosine Kinase Inhibitors Display Potent Activity against Cryptosporidium parvum” (Microbiology Spectrum, 2022)", "experiment_in_all_cases": "KINOMEscan competitive binding, whole panel", "key": {"panel of 203 kinases [1]": {"biological_target": "T1, panel of 203 kinases (Homo sapiens, UniProt P21802)", "T1 construct": "purchased DiscoverX (KINOMEscan)", "T1 sequence (P21802 22-821)": "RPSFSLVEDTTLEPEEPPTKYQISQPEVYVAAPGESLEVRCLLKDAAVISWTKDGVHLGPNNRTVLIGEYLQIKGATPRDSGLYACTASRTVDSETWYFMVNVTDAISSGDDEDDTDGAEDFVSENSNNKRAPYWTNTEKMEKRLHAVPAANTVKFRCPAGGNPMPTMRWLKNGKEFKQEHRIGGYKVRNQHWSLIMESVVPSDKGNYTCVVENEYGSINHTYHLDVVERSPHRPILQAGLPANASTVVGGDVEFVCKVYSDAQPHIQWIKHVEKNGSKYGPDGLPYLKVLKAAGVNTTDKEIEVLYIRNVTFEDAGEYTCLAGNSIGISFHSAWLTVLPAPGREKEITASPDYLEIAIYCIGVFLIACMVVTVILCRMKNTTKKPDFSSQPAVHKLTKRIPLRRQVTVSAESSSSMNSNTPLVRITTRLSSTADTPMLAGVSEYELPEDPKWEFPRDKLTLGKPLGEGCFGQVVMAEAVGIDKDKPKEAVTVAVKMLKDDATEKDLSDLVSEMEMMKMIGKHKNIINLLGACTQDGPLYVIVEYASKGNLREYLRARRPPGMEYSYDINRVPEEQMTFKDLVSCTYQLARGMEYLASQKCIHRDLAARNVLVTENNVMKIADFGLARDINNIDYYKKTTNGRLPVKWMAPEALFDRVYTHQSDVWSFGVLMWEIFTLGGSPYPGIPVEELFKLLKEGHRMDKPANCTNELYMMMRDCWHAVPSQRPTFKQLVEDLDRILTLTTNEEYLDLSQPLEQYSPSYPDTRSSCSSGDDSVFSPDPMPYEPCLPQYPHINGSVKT", "conditions": "10 µM, n=1; kinase FGFR2; read-out: Percent inhibition FGFR2", "source_text": "(§1) The kinases were expressed as fusions to T7 bacteriophage. This is a sensitive, competitive binding assay where test compounds were used to displace immobilized ATP-site binding probe ligands from kinases of interest. The amount of kinase that remained bound to the immobilized probe ligands on the solid support was quantified. Percentage inhibition data were was plotted on kinome trees using the web-based tool KinMap (http://www.kinhub.org/kinmap) ([60])."}, "panel of 203 kinases [2]": {"biological_target": "T2, panel of 203 kinases (Homo sapiens, UniProt Q9HC98)", "T2 construct": "purchased DiscoverX (KINOMEscan)", "T2 sequence (Q9HC98 whole entry)": "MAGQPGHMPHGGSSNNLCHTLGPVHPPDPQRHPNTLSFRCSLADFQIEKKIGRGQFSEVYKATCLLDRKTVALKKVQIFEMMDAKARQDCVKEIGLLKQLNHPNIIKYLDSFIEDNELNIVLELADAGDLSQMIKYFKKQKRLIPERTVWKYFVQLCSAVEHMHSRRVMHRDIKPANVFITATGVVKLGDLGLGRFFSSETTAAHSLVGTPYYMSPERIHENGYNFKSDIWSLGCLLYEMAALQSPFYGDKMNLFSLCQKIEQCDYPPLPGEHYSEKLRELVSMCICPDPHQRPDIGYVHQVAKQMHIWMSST", "conditions": "10 µM, n=1; kinase NEK6; read-out: Percent inhibition NEK6", "source_text": "as §1"}, "panel of 203 kinases [3]": {"biological_target": "T3, panel of 203 kinases (Homo sapiens, UniProt Q13705)", "T3 construct": "purchased DiscoverX (KINOMEscan)", "T3 sequence (Q13705 19-512)": "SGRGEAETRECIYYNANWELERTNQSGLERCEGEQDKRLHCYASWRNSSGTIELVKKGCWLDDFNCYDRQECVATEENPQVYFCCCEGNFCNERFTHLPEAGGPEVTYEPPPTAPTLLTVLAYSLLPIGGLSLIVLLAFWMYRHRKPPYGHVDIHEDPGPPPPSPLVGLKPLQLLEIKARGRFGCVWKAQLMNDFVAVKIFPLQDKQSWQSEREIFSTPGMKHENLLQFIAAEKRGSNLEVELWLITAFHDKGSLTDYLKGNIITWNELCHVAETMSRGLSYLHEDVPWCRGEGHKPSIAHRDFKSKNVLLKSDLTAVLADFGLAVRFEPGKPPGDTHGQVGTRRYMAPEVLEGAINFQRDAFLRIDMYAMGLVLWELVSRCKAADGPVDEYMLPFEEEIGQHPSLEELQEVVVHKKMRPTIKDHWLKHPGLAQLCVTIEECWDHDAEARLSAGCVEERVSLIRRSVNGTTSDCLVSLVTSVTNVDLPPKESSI", "conditions": "10 µM, n=1; kinase ACVR2B; read-out: Percent inhibition ACVR2B", "source_text": "as §1"}, "panel of 203 kinases [4]": {"biological_target": "T4, panel of 203 kinases (Homo sapiens, UniProt Q92918)", "T4 construct": "purchased DiscoverX (KINOMEscan)", "T4 sequence (Q92918 whole entry)": "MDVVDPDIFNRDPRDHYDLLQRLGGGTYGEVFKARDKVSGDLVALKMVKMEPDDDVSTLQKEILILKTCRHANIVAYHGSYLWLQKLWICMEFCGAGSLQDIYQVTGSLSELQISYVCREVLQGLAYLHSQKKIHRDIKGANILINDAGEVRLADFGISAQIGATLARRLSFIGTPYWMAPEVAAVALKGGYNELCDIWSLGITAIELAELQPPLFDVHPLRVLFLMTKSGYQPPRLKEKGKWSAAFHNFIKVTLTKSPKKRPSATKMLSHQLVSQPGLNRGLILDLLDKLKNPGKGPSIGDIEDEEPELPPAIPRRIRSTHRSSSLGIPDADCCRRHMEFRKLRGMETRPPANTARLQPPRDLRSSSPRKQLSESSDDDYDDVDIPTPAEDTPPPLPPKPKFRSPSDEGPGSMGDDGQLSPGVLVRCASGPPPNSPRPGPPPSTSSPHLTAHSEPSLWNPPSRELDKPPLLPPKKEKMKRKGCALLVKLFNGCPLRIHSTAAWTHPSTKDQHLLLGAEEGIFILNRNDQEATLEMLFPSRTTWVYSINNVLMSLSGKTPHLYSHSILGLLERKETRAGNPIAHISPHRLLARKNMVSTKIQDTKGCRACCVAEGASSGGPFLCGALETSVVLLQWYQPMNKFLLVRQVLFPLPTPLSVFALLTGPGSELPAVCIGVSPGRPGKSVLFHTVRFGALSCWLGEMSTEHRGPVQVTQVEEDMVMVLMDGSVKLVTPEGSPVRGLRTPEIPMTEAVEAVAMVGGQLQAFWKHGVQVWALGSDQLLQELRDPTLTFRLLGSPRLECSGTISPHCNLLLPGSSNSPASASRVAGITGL", "conditions": "10 µM, n=1; kinase MAP4K1; read-out: Percent inhibition MAP4K1", "source_text": "as §1"}, "panel of 203 kinases [5]": {"biological_target": "T5, panel of 203 kinases (Homo sapiens, UniProt P35916)", "T5 construct": "purchased DiscoverX (KINOMEscan)", "conditions": "10 µM, n=1; kinase FLT4; read-out: Percent inhibition FLT4", "source_text": "as §1"}, "panel of 203 kinases [6]": {"biological_target": "T6, panel of 203 kinases (Homo sapiens, UniProt P45984)", "T6 construct": "purchased DiscoverX (KINOMEscan)", "T6 sequence (P45984 whole entry)": "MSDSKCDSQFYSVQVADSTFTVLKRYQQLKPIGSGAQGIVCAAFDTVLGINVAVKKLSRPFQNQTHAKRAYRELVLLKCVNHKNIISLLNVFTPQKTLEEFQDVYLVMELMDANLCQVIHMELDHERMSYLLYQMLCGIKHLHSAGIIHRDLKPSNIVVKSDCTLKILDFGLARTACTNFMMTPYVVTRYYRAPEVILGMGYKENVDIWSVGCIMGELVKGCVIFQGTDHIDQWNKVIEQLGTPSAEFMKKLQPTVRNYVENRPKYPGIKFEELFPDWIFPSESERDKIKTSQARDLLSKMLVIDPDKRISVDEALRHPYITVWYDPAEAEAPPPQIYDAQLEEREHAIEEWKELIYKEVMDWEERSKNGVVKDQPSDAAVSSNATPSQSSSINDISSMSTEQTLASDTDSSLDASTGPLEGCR", "conditions": "10 µM, n=1; kinase JNK2; read-out: Percent inhibition JNK2", "source_text": "as §1"}, "panel of 203 kinases [7]": {"biological_target": "T7, panel of 203 kinases (Homo sapiens, UniProt P54760)", "T7 construct": "purchased DiscoverX (KINOMEscan)", "T7 sequence (P54760 16-987)": "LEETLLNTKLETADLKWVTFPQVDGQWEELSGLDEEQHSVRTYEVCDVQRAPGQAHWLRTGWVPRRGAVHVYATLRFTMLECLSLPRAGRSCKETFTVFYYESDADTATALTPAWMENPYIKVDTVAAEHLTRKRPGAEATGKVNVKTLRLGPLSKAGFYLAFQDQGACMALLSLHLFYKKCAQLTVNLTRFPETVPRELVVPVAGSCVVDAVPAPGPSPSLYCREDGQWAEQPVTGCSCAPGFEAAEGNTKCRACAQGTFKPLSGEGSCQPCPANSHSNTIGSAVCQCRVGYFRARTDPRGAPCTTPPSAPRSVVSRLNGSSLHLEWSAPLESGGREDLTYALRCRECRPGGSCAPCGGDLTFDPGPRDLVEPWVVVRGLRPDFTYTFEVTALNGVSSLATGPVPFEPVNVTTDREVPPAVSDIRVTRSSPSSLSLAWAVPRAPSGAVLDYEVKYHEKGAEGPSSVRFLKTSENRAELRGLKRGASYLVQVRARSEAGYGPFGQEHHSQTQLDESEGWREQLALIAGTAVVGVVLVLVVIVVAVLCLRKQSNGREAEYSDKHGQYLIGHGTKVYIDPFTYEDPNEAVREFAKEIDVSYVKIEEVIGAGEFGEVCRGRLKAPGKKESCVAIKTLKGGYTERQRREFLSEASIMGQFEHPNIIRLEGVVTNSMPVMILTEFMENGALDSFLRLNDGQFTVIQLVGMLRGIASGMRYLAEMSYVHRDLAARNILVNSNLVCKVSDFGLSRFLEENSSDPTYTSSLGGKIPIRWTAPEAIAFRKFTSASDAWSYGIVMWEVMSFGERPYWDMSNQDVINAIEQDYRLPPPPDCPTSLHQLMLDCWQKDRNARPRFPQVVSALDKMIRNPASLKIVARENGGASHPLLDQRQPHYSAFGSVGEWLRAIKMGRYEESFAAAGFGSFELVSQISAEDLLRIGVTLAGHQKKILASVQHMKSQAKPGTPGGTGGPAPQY", "conditions": "10 µM, n=1; kinase EPHB4; read-out: Percent inhibition EPHB4", "source_text": "as §1"}, "panel of 203 kinases [8]": {"biological_target": "T8, panel of 203 kinases (Homo sapiens, UniProt P31749)", "T8 construct": "purchased DiscoverX (KINOMEscan)", "T8 sequence (P31749 whole entry)": "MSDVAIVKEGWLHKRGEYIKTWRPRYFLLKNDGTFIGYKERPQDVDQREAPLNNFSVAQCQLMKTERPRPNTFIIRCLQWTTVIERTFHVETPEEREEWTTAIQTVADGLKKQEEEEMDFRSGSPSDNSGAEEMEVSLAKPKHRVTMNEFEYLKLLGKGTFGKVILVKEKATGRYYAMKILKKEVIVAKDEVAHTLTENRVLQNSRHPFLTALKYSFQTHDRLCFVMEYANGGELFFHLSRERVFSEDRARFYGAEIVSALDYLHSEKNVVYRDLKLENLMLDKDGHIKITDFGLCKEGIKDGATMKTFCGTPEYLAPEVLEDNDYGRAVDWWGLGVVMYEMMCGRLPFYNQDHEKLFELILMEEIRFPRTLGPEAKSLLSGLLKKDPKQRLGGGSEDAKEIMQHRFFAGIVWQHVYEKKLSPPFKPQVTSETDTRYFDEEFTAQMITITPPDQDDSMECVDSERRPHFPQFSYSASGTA", "conditions": "10 µM, n=1; kinase AKT1; read-out: Percent inhibition AKT1", "source_text": "as §1"}, "panel of 203 kinases [9]": {"biological_target": "T9, panel of 203 kinases (Homo sapiens, UniProt Q9HAZ1)", "T9 construct": "purchased DiscoverX (KINOMEscan)", "conditions": "10 µM, n=1; kinase CLK4; read-out: Percent inhibition CLK4", "source_text": "as §1"}, "panel of 203 kinases [10]": {"biological_target": "T10, panel of 203 kinases (Homo sapiens, UniProt P31751)", "T10 construct": "purchased DiscoverX (KINOMEscan)", "conditions": "10 µM, n=1; kinase AKT2; read-out: Percent inhibition AKT2", "source_text": "as §1"}, "panel of 203 kinases [11]": {"biological_target": "T11, panel of 203 kinases (Homo sapiens, UniProt Q15759)", "T11 construct": "purchased DiscoverX (KINOMEscan)", "T11 sequence (Q15759 whole entry)": "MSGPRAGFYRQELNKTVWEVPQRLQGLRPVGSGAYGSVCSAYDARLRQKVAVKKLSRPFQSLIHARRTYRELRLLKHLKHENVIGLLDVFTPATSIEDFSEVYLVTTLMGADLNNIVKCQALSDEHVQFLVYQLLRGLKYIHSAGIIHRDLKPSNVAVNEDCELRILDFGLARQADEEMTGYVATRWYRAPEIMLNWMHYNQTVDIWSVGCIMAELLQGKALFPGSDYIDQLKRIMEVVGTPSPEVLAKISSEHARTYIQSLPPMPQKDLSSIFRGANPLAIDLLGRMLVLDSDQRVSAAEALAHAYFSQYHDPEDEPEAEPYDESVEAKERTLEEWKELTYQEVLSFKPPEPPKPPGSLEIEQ", "conditions": "10 µM, n=1; kinase p38-beta; read-out: Percent inhibition p38-beta", "source_text": "as §1"}, "panel of 203 kinases [12]": {"biological_target": "T12, panel of 203 kinases (Homo sapiens, UniProt P09769)", "T12 construct": "purchased DiscoverX (KINOMEscan)", "T12 sequence (P09769 whole entry)": "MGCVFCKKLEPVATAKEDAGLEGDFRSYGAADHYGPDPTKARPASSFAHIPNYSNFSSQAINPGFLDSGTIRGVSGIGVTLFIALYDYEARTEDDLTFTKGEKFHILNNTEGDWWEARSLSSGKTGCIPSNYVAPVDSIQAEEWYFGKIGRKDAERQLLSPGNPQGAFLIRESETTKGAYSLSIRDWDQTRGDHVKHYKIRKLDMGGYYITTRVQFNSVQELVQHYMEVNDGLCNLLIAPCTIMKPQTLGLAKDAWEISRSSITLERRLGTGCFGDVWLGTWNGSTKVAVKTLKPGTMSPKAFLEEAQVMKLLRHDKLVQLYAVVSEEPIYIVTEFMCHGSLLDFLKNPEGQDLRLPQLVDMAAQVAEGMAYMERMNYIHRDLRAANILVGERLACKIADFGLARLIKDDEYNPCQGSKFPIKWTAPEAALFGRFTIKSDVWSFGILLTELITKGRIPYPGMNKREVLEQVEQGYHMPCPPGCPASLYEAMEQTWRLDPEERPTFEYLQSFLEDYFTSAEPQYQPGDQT", "conditions": "10 µM, n=1; kinase FGR; read-out: Percent inhibition FGR", "source_text": "as §1"}, "panel of 203 kinases [13]": {"biological_target": "T13, panel of 203 kinases (Homo sapiens, UniProt P22607)", "T13 construct": "purchased DiscoverX (KINOMEscan)", "T13 sequence (P22607 23-806)": "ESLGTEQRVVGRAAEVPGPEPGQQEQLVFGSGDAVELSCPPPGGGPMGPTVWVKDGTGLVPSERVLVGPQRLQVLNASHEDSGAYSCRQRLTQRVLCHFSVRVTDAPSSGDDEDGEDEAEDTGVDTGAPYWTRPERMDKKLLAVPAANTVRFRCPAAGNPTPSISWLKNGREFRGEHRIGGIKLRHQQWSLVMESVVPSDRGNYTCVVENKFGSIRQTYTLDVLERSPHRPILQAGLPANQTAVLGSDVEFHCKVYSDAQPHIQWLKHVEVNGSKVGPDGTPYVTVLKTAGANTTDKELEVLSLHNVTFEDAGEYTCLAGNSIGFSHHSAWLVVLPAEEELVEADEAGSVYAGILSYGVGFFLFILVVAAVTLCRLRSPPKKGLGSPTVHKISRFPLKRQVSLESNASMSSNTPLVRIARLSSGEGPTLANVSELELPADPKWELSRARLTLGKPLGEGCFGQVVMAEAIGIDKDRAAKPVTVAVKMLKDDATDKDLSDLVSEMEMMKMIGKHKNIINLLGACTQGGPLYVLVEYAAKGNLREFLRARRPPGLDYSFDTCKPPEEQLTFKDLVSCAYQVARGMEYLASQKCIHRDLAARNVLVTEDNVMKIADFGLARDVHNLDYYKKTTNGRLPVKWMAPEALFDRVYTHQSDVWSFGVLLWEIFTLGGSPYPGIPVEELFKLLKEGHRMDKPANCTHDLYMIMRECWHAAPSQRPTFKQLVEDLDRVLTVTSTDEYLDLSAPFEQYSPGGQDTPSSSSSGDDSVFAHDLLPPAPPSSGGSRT", "conditions": "10 µM, n=1; kinase FGFR3; read-out: Percent inhibition FGFR3", "source_text": "as §1"}, "panel of 203 kinases [14]": {"biological_target": "T14, panel of 203 kinases (Homo sapiens, UniProt P37023)", "T14 construct": "purchased DiscoverX (KINOMEscan)", "conditions": "10 µM, n=1; kinase ACVRL1; read-out: Percent inhibition ACVRL1", "source_text": "as §1"}, "panel of 203 kinases [15]": {"biological_target": "T15, panel of 203 kinases (Homo sapiens, UniProt Q8N752)", "T15 construct": "purchased DiscoverX (KINOMEscan)", "T15 sequence (Q8N752 1-337)": "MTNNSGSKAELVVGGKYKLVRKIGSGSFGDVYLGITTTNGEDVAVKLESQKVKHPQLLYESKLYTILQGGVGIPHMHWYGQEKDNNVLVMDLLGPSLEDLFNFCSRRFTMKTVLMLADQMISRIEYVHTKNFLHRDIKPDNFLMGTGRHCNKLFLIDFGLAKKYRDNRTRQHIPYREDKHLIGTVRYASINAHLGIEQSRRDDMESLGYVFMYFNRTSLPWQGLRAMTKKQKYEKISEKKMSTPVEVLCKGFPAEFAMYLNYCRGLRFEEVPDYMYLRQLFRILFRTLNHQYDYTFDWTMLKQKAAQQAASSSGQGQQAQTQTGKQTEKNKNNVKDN", "conditions": "10 µM, n=1; kinase CSNK1A1L; read-out: Percent inhibition CSNK1A1L", "source_text": "as §1"}, "panel of 203 kinases [16]": {"biological_target": "T16, panel of 203 kinases (Homo sapiens, UniProt Q7KZI7)", "T16 construct": "purchased DiscoverX (KINOMEscan)", "conditions": "10 µM, n=1; kinase MARK2; read-out: Percent inhibition MARK2", "source_text": "as §1"}, "panel of 203 kinases [17]": {"biological_target": "T17, panel of 203 kinases (Homo sapiens, UniProt Q9Y6E0)", "T17 construct": "purchased DiscoverX (KINOMEscan)", "conditions": "10 µM, n=1; kinase MST3; read-out: Percent inhibition MST3", "source_text": "as §1"}}, "data": [{"smiles": "Nc1ncc2c(-c3ccncc3)c[nH]c2n1", "note": "[Compound 11]", "values": [{"measurement": "inhibition at 10 µM", "setting": "panel of 203 kinases [1]", "value": 0, "unit": "%"}, {"measurement": "inhibition at 10 µM", "setting": "panel of 203 kinases [2]", "value": 0, "unit": "%"}, {"measurement": "inhibition at 10 µM", "setting": "panel of 203 kinases [3]", "value": 65.7, "unit": "%"}, {"measurement": "inhibition at 10 µM", "setting": "panel of 203 kinases [4]", "value": 0, "unit": "%"}, {"measurement": "inhibition at 10 µM", "setting": "panel of 203 kinases [5]", "value": 0, "unit": "%"}, {"measurement": "inhibition at 10 µM", "setting": "panel of 203 kinases [6]", "value": 0, "unit": "%"}, {"measurement": "inhibition at 10 µM", "setting": "panel of 203 kinases [7]", "value": 0, "unit": "%"}, {"measurement": "inhibition at 10 µM", "setting": "panel of 203 kinases [8]", "value": 0, "unit": "%"}, {"measurement": "inhibition at 10 µM", "setting": "panel of 203 kinases [9]", "value": 93.4, "unit": "%"}, {"measurement": "inhibition at 10 µM", "setting": "panel of 203 kinases [10]", "value": 0, "unit": "%"}, {"measurement": "inhibition at 10 µM", "setting": "panel of 203 kinases [11]", "value": 0, "unit": "%"}, {"measurement": "inhibition at 10 µM", "setting": "panel of 203 kinases [12]", "value": 76.8, "unit": "%"}, {"measurement": "inhibition at 10 µM", "setting": "panel of 203 kinases [13]", "value": 0, "unit": "%"}, {"measurement": "inhibition at 10 µM", "setting": "panel of 203 kinases [14]", "value": 0, "unit": "%"}, {"measurement": "inhibition at 10 µM", "setting": "panel of 203 kinases [15]", "value": 70.7, "unit": "%"}, {"measurement": "inhibition at 10 µM", "setting": "panel of 203 kinases [16]", "value": 0, "unit": "%"}, {"measurement": "inhibition at 10 µM", "setting": "panel of 203 kinases [17]", "value": 68.2, "unit": "%"}]}]}
